{
  "source": "patent US8691808B2",
  "about": "“Antiviral compounds and their methods of use” (Influmedix, Inc., priority 2011, dated 2014)",
  "note": "Structures can show the parent of a compound that is named as a salt.",
  "data": [
    {"molecular_target": "T1, A/M2 protein (IonGate S31) (Influenza A virus, UniProt P0DOF5)", "T1 construct": "expressed in transfected cells; host or cells: CHO cell membranes", "T1 sequence (P0DOF5 whole entry)": "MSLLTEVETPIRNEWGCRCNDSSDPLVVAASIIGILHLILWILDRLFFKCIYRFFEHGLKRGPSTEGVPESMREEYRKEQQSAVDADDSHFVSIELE", "test": "Cell-free electrophysiology of M2 proton channels on solid supported membranes (SSM, IonGate SURFE2R)", "assay_type": "biochemical", "conditions": "25 μM compound, activation by pH jump 7.0 to 6.0, % inhibition=100×(1−I/Io), hydrochloride, 25 µM", "values": [
      {"molecule": "NC12CC3CC(CC(C(F)F)C(C3)C1)C2", "note": "(stereo not drawn) [Example 10, exo-4-(difluoromethyl)tricyclo[4.3.1.1^3,8]undecan-1-amine hydrochloride]", "IonGate S31 (% Inhibition Range at 25 μM)": "B (11-50% (B))"},
      {"molecule": "NC12CC3CC(CC(C(F)F)C(C3)C1)C2", "note": "(stereo not drawn) [Example 11, endo-4-(difluoromethyl)tricyclo[4.3.1.1^3,8]undecan-1-amine hydrochloride]", "IonGate S31 (% Inhibition Range at 25 μM)": "A (51-95% (A))"}
    ]},
    {"molecular_target": "T1, A/M2 protein (IonGate S31)", "test": "Cell-free electrophysiology of M2 proton channels on solid supported membranes (SSM, IonGate SURFE2R)", "assay_type": "biochemical", "conditions": "25 μM compound, activation by pH jump 7.0 to 6.0, % inhibition=100×(1−I/Io), read-out: IonGate S31 (% Inhibition Range at 25 μM)", "units": {"inhibition at 25 µM": "%"}, "values": [
      {"molecule": "NC12CC3CC(CC(C1)C(O)C3)C2", "note": "(stereo not drawn) [Example 1, exo-1-aminotricyclo[4.3.1.1^3,8]undecan-4-ol hydrochloride]", "inhibition at 25 µM": "11 to 50"},
      {"molecule": "NC12CC3CC(CC(C1)C(F)C3)C2", "note": "(stereo not drawn) [Example 3, endo-4-fluorotricyclo[4.3.1.1^3,8]undecan-1-amine hydrochloride]", "inhibition at 25 µM": "51 to 95"},
      {"molecule": "NC12CC3CC(CC(C1)C(I)C3)C2", "note": "(centres unmarked) [Example 5, 4-iodotricyclo[4.3.1.1^3,8]undecan-1-amine hydrochloride]", "inhibition at 25 µM": "11 to 50"},
      {"molecule": "N#CC1CC2CC3CC1CC(N)(C2)C3", "note": "(stereo not drawn) [Example 8, exo-1-aminotricyclo[4.3.1.1^3,8]undecane-4-carbonitrile hydrochloride]", "inhibition at 25 µM": "51 to 95"},
      {"molecule": "NC12CC3CC(=NO)C(CC(C3)C1)C2", "note": "(centres unmarked) [Example 12, 1-aminotricyclo[4.3.1.1^3,8]undecan-4-one oxime hydrochloride]", "inhibition at 25 µM": "1 to 10"},
      {"molecule": "NC12CC3CC(C1)OC(=O)C(C3)C2", "note": "(centres unmarked) [Example 13, 1-amino-4-oxatricyclo[4.3.1.1^3,8]undecan-5-one hydrochloride]", "inhibition at 25 µM": "1 to 10"},
      {"molecule": "NC12CC3CC(C1)NC(=O)C(C3)C2", "note": "(centres unmarked) [Example 14, 1-amino-4-azatricyclo[4.3.1.1^3,8]undecan-5-one hydrochloride]", "inhibition at 25 µM": "1 to 10"},
      {"molecule": "NC12CC3CNC(CC(C3)C1)C2", "note": "(centres unmarked) [Example 15, 4-azatricyclo[4.3.1.1^3,8]undecan-1-amine dihydrochloride]", "inhibition at 25 µM": "11 to 50"},
      {"molecule": "NC12CC3COC(CC(C3)C1)C2", "note": "(centres unmarked) [Example 16, 4-oxatricyclo[4.3.1.1^3,8]undecan-1-amine hydrochloride]", "inhibition at 25 µM": "11 to 50"}
    ]}
  ]
}
